Laboratory results taken from patent publication US20240279207A1, “SUBSTITUTED ACYL SULFONAMIDES FOR TREATING CANCER” (The Broad Institute, Inc., priority 2020, published 2024).
Like-named read-outs stand apart in the source and are kept apart here.

Tests used:
[1] = molecular target: T1, Recombinant human His-tagged Kat6a protein (amino acids 194-810) (Homo sapiens, UniProt Q92794); experiment: Kat6a activity assay (TR-FRET, acetylation of Histone-H4-derived peptide); assay type: biochemical; conditions: 60 mins at 22° C., 220 nM H4 peptide, 600 nM Acetyl Coenzyme A, read-out: KAT6A - DPF/HAT domain IC50 [mol/l] (arithmetic mean)
T1 construct: Kat6a protein (amino acids 194-810); His
T1 sequence (Q92794 194-810): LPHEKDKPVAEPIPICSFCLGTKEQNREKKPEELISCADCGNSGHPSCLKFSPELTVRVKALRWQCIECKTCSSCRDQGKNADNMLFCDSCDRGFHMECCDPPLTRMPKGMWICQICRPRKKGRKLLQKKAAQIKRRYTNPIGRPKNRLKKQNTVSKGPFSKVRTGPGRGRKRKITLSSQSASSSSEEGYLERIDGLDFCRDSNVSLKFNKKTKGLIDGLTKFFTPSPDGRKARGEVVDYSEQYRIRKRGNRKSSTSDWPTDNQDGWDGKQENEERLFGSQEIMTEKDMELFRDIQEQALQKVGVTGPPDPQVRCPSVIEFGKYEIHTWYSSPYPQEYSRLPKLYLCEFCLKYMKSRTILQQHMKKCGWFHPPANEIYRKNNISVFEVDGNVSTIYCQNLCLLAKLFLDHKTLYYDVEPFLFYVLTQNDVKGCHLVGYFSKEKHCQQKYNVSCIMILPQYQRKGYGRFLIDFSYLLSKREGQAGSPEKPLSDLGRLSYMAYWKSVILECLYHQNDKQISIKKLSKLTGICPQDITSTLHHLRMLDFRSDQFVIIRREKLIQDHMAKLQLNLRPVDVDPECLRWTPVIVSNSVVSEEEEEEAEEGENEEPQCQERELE

[2] = test system: MDA-MB-436 cells; experiment: MDA-MB-436 proliferation assay (negative control cell line); assay type: cell-based; conditions: 144 h, Alamar Blue, read-out: MDA-MB-436 proliferation assay, EC50 [M] (arithmetic mean)
From the text: (§1) For compound characterization cell survival assays were routinely run in two cell lines. ZR-75-1 is a breast carcinoma cell line containing a focal KAT6A amplification and high KAT6A protein expression. Proliferation of this cell line is inhibited upon treatment with KAT6A inhibitors. As a negative control cell line MDA-MB-436 were used. These cells carry a […] deletion of the KAT6A gene, have a low KAT6A protein expression and are not growth inhibited upon treatment with KAT6A inhibitors.
(§2) For measurements cell lines were plated at the below indicated concentration per […] in 96-well plates in a humidified incubator at 37° C. and 5% CO2.
MDA-MB-436 (CLS, 300278; breast adenocarcinoma); 3000 cells per well; culture medium: DMEM/Ham's F12 (Biochrom #FG 4815) medium containing 2.5% FBS (Biochrom #S0615).
(§3) Each sample was prepared as triplicate and rim wells were excluded. Plates were incubated at 37° C. and 5% CO2 for 144 h. Cell viability was measured by adding 10 μL of Alamar Blue Reagent (Invitrogen #DAL 1100) and plates were incubated for 2 h at 37° C. and 5% CO2. Fluorescence was measured at 590 nm wavelength with a Tecan Spark or Victor X3 MTP-Reader (PerkinElmer).

[3] = test system: ESR1 transcription in MVLN cells; experiment: MVLN reporter assay: repression of ESR1 transcription (luciferase signal); assay type: cell-based; conditions: luciferase signal after 24 h, read-out: MVLN reporter assay, IC50 [M] (arithmetic mean)
Summary of the method: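 To control for cell loss, Alamar Blue (2 h, 530/590 nm) precedes the 24 h luciferase measurement. The reporter is an ERE from the Xenopus vitellogenin A2 gene driving luciferase, stably transfected into ER-expressing MVLN cells; duplicate samples.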

[4] = test system: LCLC97TM1; experiment: LCLC97TM1 proliferation assay; assay type: cell-based; conditions: read-out: LCLC97TM1 proliferation assay, EC50 [M] (arithmetic mean)
[5] = test system: ZR-75-1 cells; experiment: ZR-75-1 proliferation assay; assay type: cell-based; conditions: Alamar Blue, read-out: ZR75-1 proliferation assay, EC50 [M] (arithmetic mean)
From the text: as §1, §2
ZR-75-1 (ATCC, CRL-1500; breast carcinoma); 3000 cells per well; culture medium: RPMI 1640 (Biochrom #FG 1215) medium containing 2.5% FBS (Biochrom #S0615).
as §3

[6] = Homo sapiens, LCLC-97TM1, LCLC97TM1

IC50 [1]	EC50 ([2]; Homo sapiens)	IC50 ([3]; Homo sapiens, MVLN, 24 h)	EC50 [2]	IC50 [3]	SMILES	EC50 [4, 6]	EC50 ([5]; Homo sapiens, ZR-75-1, 144 h)	EC50 ([4]; LCLC97TM1)	EC50 ([5]; 144 h)
203 nM	> 2e-05 M	1.45e-06 M	–	–	Cc1ccc2cccc(S(=O)(=O)NC(=O)c3cc4c(F)cc(N5CCC5C(F)F)cc4o3)c2n1 (racemic) [Example 160, 6-[2-(Difluoromethyl)azetidin-1-yl]-4-fluoro-N-(2-methylquinoline-8-sulfonyl)-1-benzofuran-2-carboxamide (rac)]	> 2e-05 M	4.34e-06 M	–	–
1090 nM	> 2e-05 M	5.92e-06 M	–	–	Cc1ccc2cccc(S(=O)(=O)NC(=O)c3cc4c(F)cc(N5CCC5C(C)(C)O)cc4o3)c2n1 (racemic) [Example 161, 4-Fluoro-6-[2-(1-hydroxy-1-methyl-ethyl)azetidin-1-yl]-N-[(2-methyl-8-quinolyl)sulfonyl]benzofuran-2-carboxamide (rac)]	> 2e-05 M	7.56e-06 M	–	–
1990 nM	> 2e-05 M	1.95e-05 M	–	–	CCOc1ccccc1S(=O)(=O)NC(=O)c1cc2c(F)cc(N3CCC3C(C)(C)O)cc2o1 (racemic) [Example 162, N-(2-ethoxybenzene-1-sulfonyl)-4-fluoro-6-[2-(2-hydroxypropan-2-yl)azetidin-1-yl]-1-benzofuran-2-carboxamide (rac)]	> 2e-05 M	> 2e-05 M	–	–
862 nM	> 2e-05 M	3.67e-06 M	–	–	CCOc1ccccc1S(=O)(=O)NC(=O)c1cc2c(F)cc(N3CCC3C(F)F)cc2o1 (racemic) [Example 163, 6-[2-(Difluoromethyl)azetidin-1-yl]-N-(2-ethoxybenzene-1-sulfonyl)-4-fluoro-1-benzofuran-2-carboxamide (rac)]	> 2e-05 M	6.67e-06 M	–	–
0.814 nM	> 2e-05 M	6.48e-07 M	–	–	COc1ccc(N2CCCC2c2ccccc2)cc1S(=O)(=O)NC(=O)c1cc2c(F)cc(N3CCC3)cc2o1 (racemic) [Example 201, 6-(Azetidin-1-yl)-4-fluoro-N-[2-methoxy-5-(2-phenylpyrrolidin-1-yl)benzene-1-sulfonyl]-1-benzofuran-2-carboxamide (rac)]	2.81e-06 M	3.26e-06 M	–	–
28.1 nM	> 2e-05 M	6.93e-08 M	–	–	CC(Oc1ccccc1S(=O)(=O)NC(=O)c1cc2c(F)cc(N3CCC3)cc2o1)C(F)(F)F (single isomer, unassigned) [Example 14]	–	–	1.39e-06 M	9.93e-08 M
47.2 nM	–	–	> 2e-05 M	7.55e-08 M	CC(Oc1ccccc1S(=O)(=O)NC(=O)c1cc2c(F)cc(N3CCC3)cc2o1)C(F)(F)F (single isomer, unassigned) [Example 15]	–	–	6.28e-07 M	2.46e-07 M
8.1 nM	> 2e-05 M	5.25e-08 M	–	–	CCc1ccc(OC2CCCC2)c(S(=O)(=O)NC(=O)c2cc3c(F)cc(N4CCC4)cc3o2)c1 [Example 3, 6-(Azetidin-1-yl)-N-[2-(cyclopentyloxy)-5-ethylbenzene-1-sulfonyl]-4-fluoro-1-benzofuran-2-carboxamide]	1.11e-06 M	2.32e-07 M	–	–
18.8 nM	> 2e-05 M	2.06e-07 M	–	–	O=C(NS(=O)(=O)c1ccccc1-c1ccccc1)c1cc2c(F)cc(N3CCC3)cc2o1 [Example 19, 6-(Azetidin-1-yl)-N-([1,1′-biphenyl]-2-sulfonyl)-4-fluoro-1-benzofuran-2-carboxamide]	–	–	–	–
2290 nM	–	1.45e-06 M	–	–	CCOc1ccccc1S(=O)(=O)NC(=O)c1cc2ccc(N3CC(C)(F)C3)cc2o1 [Example 116, N-(2-Ethoxybenzene-1-sulfonyl)-6-(3-fluoro-3-methylazetidin-1-yl)-1-benzofuran-2-carboxamide]	> 2e-05 M	5.72e-06 M	–	–
6520 nM	> 2e-05 M	> 2e-05 M	–	–	CCOc1ccccc1S(=O)(=O)NC(=O)c1cc2ccc(N3CC(c4ccccc4)C3)cc2o1 [Example 120, N-(2-ethoxybenzene-1-sulfonyl)-6-(3-phenylazetidin-1-yl)-1-benzofuran-2-carboxamide]	–	–	–	–
> 20000 nM	> 2e-05 M	> 2e-05 M	–	–	CCOc1ccccc1S(=O)(=O)NC(=O)c1cc2ccc(N3CC4(CC4)C3)cc2o1 [Example 122, 6-(5-Azaspiro[2.3]hexan-5-yl)-N-(2-ethoxybenzene-1-sulfonyl)-1-benzofuran-2-carboxamide]	–	–	–	–
> 20000 nM	> 2e-05 M	> 2e-05 M	–	–	CCOc1ccccc1S(=O)(=O)NC(=O)c1cc2ccc(N3CC(C)(C)C3)cc2o1 [Example 124, 6-(3,3-dimethylazetidin-1-yl)-N-(2-ethoxybenzene-1-sulfonyl)-1-benzofuran-2-carboxamide]	–	–	–	–
–	> 2e-05 M	3.54e-09 M	–	–	COc1ccc(C(C)(C)C)cc1S(=O)(=O)NC(=O)c1cc2c(F)cc(N3CCC3)cc2o1 [Example 127, 6-(Azetidin-1-yl)-N-(5-tert-butyl-2-methoxybenzene-1-sulfonyl)-4-fluoro-1-benzofuran-2-carboxamide]	5.73e-08 M	2.55e-08 M	–	–
16.5 nM	> 2e-05 M	9.74e-08 M	–	–	CCOc1ccc(Br)cc1S(=O)(=O)NC(=O)c1cc2c(F)cc(N3CCC3)cc2o1 [Example 135, 6-(Azetidin-1-yl)-N-(5-bromo-2-ethoxybenzene-1-sulfonyl)-4-fluoro-1-benzofuran-2-carboxamide]	–	–	–	–
45.6 nM	> 2e-05 M	1.4e-07 M	–	–	CCc1cccc(OC)c1S(=O)(=O)NC(=O)c1cc2c(F)cc(N3CCC3)cc2o1 [Example 136, 6-(azetidin-1-yl)-N-(2-ethyl-6-methoxybenzene-1-sulfonyl)-4-fluoro-1-benzofuran-2-carboxamide]	–	–	–	–
69.4 nM	> 2e-05 M	2.06e-07 M	–	–	O=C(NS(=O)(=O)c1ccccc1OC(F)(F)F)c1cc2c(F)cc(N3CCC3)cc2o1 [Example 138, 6-(Azetidin-1-yl)-4-fluoro-N-[2-(trifluoromethoxy)benzene-1-sulfonyl]-1-benzofuran-2-carboxamide]	–	–	–	–
27.6 nM	> 2e-05 M	2.91e-07 M	–	–	O=C(NS(=O)(=O)c1cccc2c1OC(F)(F)C(F)(F)O2)c1cc2c(F)cc(N3CCC3)cc2o1 [Example 140, 6-(Azetidin-1-yl)-4-fluoro-N-(2,2,3,3-tetrafluoro-2,3-dihydro-1,4-benzodioxine-5-sulfonyl)-1-benzofuran-2-carboxamide]	–	–	–	–
9560 nM	> 2e-05 M	> 2e-05 M	–	–	CC1(C)CCN1c1cc(F)c2cc(C(=O)NS(=O)(=O)c3ccccc3)oc2c1 [Example 216, N-(benzenesulfonyl)-6-(2,2-dimethylazetidin-1-yl)-4-fluoro-benzofuran-2-carboxamide]	–	–	–	–
271 nM	> 2e-05 M	1.91e-06 M	–	–	Cc1ccc2cccc(S(=O)(=O)NC(=O)c3cc4c(F)cc(N5CCC5(C)C)cc4o3)c2n1 [Example 218, 6-(2,2-Dimethylazetidin-1-yl)-4-fluoro-N-[(2-methyl-8-quinolyl)sulfonyl]benzofuran-2-carboxamide]	–	–	–	–
1850 nM	> 2e-05 M	3.86e-06 M	–	–	CCOc1ccccc1S(=O)(=O)NC(=O)c1cc2c(F)cc(N3CCC3(C)C)cc2o1 [Example 219, 6-(2,2-Dimethylazetidin-1-yl)-N-(2-ethoxyphenyl)sulfonyl-4-fluoro-benzofuran-2-carboxamide]	–	–	–	–
